Test: FeCl2 catalyzed oxidation of a dihydrotetrazine in the presence of H2O2
Conditions: DHTz 100 μM, 1 mM H2O2, FeCl2 0.05 mM, deionized water
Protocol: N′-Boc PEG10 dipyridyl-dihydrotetrazine was dissolved in deionized water containing 1 mM H2O2 to give a final DHTz concentration of 100 μM. The UV absorbance at 330 nm wavelength was monitored over 10 min. Then a 5 mM FeCl2 stock solution was added and mixed quickly to get a final FeCl2 concentration of 0.05 mM., followed by continuous monitoring of UV absorbance at 330 nm over 10 min. Oxidation was rapid and complete within ˜1 minute.

CC(C)(C)OC(=O)NCCOCCOCCOCCOCCOCCOCCOCCOCCOCCOCCOCCNC(=O)CCCC(=O)Nc1ccc(C2=NNC(c3ccccn3)=NN2)nc1 [N′-Boc PEG10 dipyridyl-dihydrotetrazine]
time to complete oxidation: ~1 min

Reference: patent publication US11485987B2, “Methods for inducing bioorthogonal reactivity” (University of Delaware, priority 2015, dated 2022)
